Laboratory results reported in US11021488B2, “Hetero-substituted cyclic lactone analogues and uses thereof” (BioVentures, LLC, priority 2015, dated 2021).

Legend:
AML primary samples = experiment: Activity of SLs against AML primary samples
Solubility in water = format: physicochemical
MOLM-13_BLIV cells = experiment: In vivo efficacy in NSG mice injected with MOLM-13_BLIV leukemia cells (luciferin imaging); conditions: 2.5 mg/kg in 20% DMSO i.p. every other day, imaged Day 23 and Day 31, vs vehicle
Experimental: To evaluate the efficacy of bahia II (BAH) in vivo, 6-8 week old NSG mice were injected i.v. via tail vein with 2.5×10^5 MOLM-13_BLIV cells. Two weeks after injection mice were injected with 3 mg of luciferin to visualize the leukemia cells using the IVIS Spectrum Imager. This was denoted time 0. Mice were randomized into 2 groups: (1) Vehicle (DMSO 20%) and (2) bahia II (BAH) (2.5 mg/kg in 20% DMSO). Mice were treated with vehicle or BAH every other day. After 3 doses, administered by i.p. injection, mice were imaged to evaluate tumor progression (Day 23). One week after the first 3 doses, the mice were treated and evaluated again in the same manner (Day 31).

MV4-11 cells = experiment: Cytotoxic activity of SLs against MV4-11 cells (flow cytometry, YO-PRO-1 / 7-AAD); format: cell-based; conditions: MV4-11 AML cell line, cell viability at 36 hours, triplicate
Experimental: Following this promising data, additional SLs were studied. This included glaucolide A (FIG. 5A), glaucolide E (FIG. 5B) and calaxin (FIG. 4A). Further, an additional compound Bahia I (FIG. 11) was synthesized (described below) and evaluated. The cytotoxicity of these compounds was determined using the AML cell line, MV4-11. MV4-11 cells were treated with the compounds at varying concentrations in triplicate. Cells were then stained with YO-PRO-1 and 7-aminoactinomycin D (7-AAD). YO-PRO-1 stains apoptotic cells and 7-ADD detects cell permeability. At 36 hours cell viability was measured via flow cytometry.

[1] = system: normal peripheral blood mononuclear cells (PBMNCs); experiment: Toxicity against normal peripheral blood mononuclear cells compared with leukemic cells; format: cell-based; conditions: PBMNCs compared with leukemic cells (FIG. 14)
From the text: The cytotoxicity of Bahia II against leukemic cells was compared with its activity against normal peripheral blood mononuclear cells (PBMNCs) (FIG. 14).

Compound: C=C1C(=O)OC2C1C(OC(=O)/C(=C/CO)CO)CC1(CO1)C1CC=C(C)C21 (centres unmarked) [Bahia II]
- Average LD50 (AML primary samples): 4.64 µM
- solubility in water (Solubility in water; mass concentration): 1750 ± 60 µg/mL
- solubility in water (Solubility in water; molar): 465 µM
- radiance emitted from tumor cells (MOLM-13_BLIV cells): significant reduction in radiance
- LD50 (MV4-11 cells): 1.21 µM
- toxicity against normal cells versus leukemia cells [1]: much lower toxicity against normal cells

Compound: C=C1C(=O)O[C@@H]2[C@H]3C(C)=CC(=O)C3=C(C)CC[C@@H]12 [DHL, Dehydroleucodine, reference compound]
- Average LD50 (AML primary samples): 7.06 µM
- LD50 (MV4-11 cells): 3.19 µM

Compound: C=C(C)C(=O)O[C@@H]1C[C@@]2(C)OC(=CC2=O)/C(C)=C\[C@H]2OC(=O)C(=C)[C@@H]21 [Calaxin]
- LD50 (MV4-11 cells): 0.0544 µM

Compound: Glaucolide E
- LD50 (MV4-11 cells): 1.12 µM

Compound: Bahia I
- LD50 (MV4-11 cells): 2.80 µM

Compound: C=C1C(=O)O[C@@H]2/C=C(\C)CC/C=C(\C)C[C@@H](OC(=O)/C(=C/CO)CO)[C@@H]12 [Eupatoriopicrin]
- Average LD50 (AML primary samples): 5.65 µM
- LD50 (MV4-11 cells): 1.09 µM

Compound: Glaucolide A
- LD50 (MV4-11 cells): 1.82 µM
